Laboratory results: ChEMBL document CHEMBL1781936, “Structure-based design of potent aromatase inhibitors by high-throughput docking” (J Med Chem, 2011)

Molecular target: T1, Aromatase (Homo sapiens, UniProt P11511)
T1 sequence (P11511 whole entry): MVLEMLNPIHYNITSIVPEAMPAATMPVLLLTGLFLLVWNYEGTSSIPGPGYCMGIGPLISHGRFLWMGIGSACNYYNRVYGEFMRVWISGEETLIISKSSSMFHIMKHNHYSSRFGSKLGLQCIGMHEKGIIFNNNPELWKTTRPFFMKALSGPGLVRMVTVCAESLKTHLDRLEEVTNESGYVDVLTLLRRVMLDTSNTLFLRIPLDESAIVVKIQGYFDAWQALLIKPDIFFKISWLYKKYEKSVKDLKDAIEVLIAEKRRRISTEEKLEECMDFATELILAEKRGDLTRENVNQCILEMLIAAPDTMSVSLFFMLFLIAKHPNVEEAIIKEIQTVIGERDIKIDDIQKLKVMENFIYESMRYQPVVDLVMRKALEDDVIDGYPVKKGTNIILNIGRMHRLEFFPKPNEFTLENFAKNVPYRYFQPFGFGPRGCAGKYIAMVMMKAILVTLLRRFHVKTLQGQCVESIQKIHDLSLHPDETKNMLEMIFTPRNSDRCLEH
Test: Inhibition of human recombinant aromatase using 7-methoxy-4-trifluoromethyl coumarin as substrate by fluorimetric analysis; call rule not given here
In the case of `COc1ccc(C(C)NC(=O)c2ccccc2Cn2cncn2)cc1F` (racemic), the IC50 is reported as 3100 nM.
In the case of `COc1cc(CC(=O)N2CCOC(Cn3ccnc3)C2)cc(OC)c1OC` (racemic), the IC50 is reported as 59.2 nM.
Molecule `O=C(Cc1ccc(F)cc1)N1CCOC(Cn2ccnc2)C1` (racemic) has an IC50 of 34.5 nM.
For `O=C(CCn1ccnc1)NC[C@H]1CC[C@H](c2ncncc2-c2ccccn2)CC1`, the IC50 was 3100 nM.
`CC(=O)c1ccc(S(=O)(=O)N2CCOC(Cn3ccnc3)C2)cc1` (racemic) gave an IC50 of 66.5 nM.
For `COc1ccc(S(=O)(=O)NCCCn2ccnc2)cc1C(C)(C)C`, the IC50 was 440 nM.
In the case of `COc1ccc2c(c1)OC1(CCN(C(=O)Cn3cncn3)CC1)CC2=O`, the IC50 is reported as 5790 nM.
Work on `CC(C)(C(=O)Nc1ccccc1Oc1ccc(F)cc1)n1cncn1` yielded an IC50 of 13200 nM.
`O=C(Cn1cncn1)NC(CCc1ccccc1)c1ccc2c(c1)OCCO2` (racemic) showed an IC50 of 991 nM.
Molecule `O=C(Cc1ccc2c(c1)OCO2)N1CCOC(Cn2ccnc2)C1` (racemic) has an IC50 of 46.7 nM.
`C=CCN(c1ccc(C(=O)NCCCn2ccnc2)cc1)S(C)(=O)=O` gave an IC50 of 2500 nM.
With `O=c1oc2cc(OCC(O)Cn3cncn3)ccc2c2c1CCC2` (racemic) the IC50 was 21700 nM.
In the case of `CC1(C)Oc2ccc(S(=O)(=O)NCCCn3ccnc3)cc2NC1=O`, the IC50 is reported as 499 nM.
`COc1ccc(S(=O)(=O)N2CCCC(Cn3ccnc3)C2)cc1C(C)(C)C` (racemic) gave an IC50 of 9.4 nM.
For `COc1cc(Cl)c(S(=O)(=O)NCCCn2ccnc2)cc1Cl`, the IC50 was 63.7 nM.
`Cc1ccc(C(=O)NCCCn2ccnc2)cn1` showed an IC50 of 10600 nM.
`COc1ccc(C(=O)OC(COc2ccccc2)Cn2ccnc2)cc1` (racemic) showed an IC50 of 16.5 nM.
`Cc1ncc(CNc2ccc(OCC(O)Cn3ccnc3)cc2)cn1` (racemic) showed an IC50 of 3500 nM.
In the case of `Cc1ccc(C(=O)NCCCn2ccnc2)cc1[N+](=O)[O-]`, the IC50 is reported as 1000 nM.
For `COc1cc2c(cc1-c1cncn1CCCn1ccnc1C)OCCCO2`, the IC50 was 498 nM.
Molecule `COc1ccc(S(=O)(=O)NCCCn2ccnc2)cc1C` has an IC50 of 61.6 nM.
Work on `O=S(=O)(NCCCn1ccnc1)c1ccc2c(c1)OCCO2` yielded an IC50 of 119 nM.
Work on `CCc1[nH]c2ccc(C(=O)NCC(C)n3cncn3)cc2c1C` (racemic) yielded an IC50 of 10600 nM.
`CC(CNC(=O)c1cc2c([nH]c1=O)CCCCC2)n1cncn1` (racemic) gave an IC50 of over 25000 nM.
Molecule `COc1ccc(S(=O)(=O)N2CCOC(Cn3ccnc3)C2)cc1` (racemic) has an IC50 of 78.8 nM.
With `COc1ccc(S(=O)(=O)NCCCn2ccnc2)cc1F` the IC50 was 100 nM.
`O=C(C(=Cc1ccccc1)n1cncn1)c1ccc(Cl)cc1Cl` (mixture of isomers) showed an IC50 of 441 nM.
In the case of `O=C(Cn1ccnc1)Nc1ccccc1Oc1ccc(F)cc1`, the IC50 is reported as 248 nM.
Work on `CCOc1ccc(S(=O)(=O)NCCCn2ccnc2)c2ccccc12` yielded an IC50 of 761 nM.
`Cc1cc(C)c(S(=O)(=O)NCCCn2ccnc2)cc1C` gave an IC50 of 172 nM.

Molecular target: T1, Aromatase
Test: Inhibition of human recombinant aromatase using 7-methoxy-4-trifluoromethyl coumarin as substrate at 25 uM by fluorimetric analysis
In the case of `CC(C)(C)C(Cn1ccnc1)NC(=O)c1cc(N2CCOCC2)nc2ccccc12` (racemic), the “inhibition (INH)” value is reported as “Not Active”.

Test system: not listed separately
Test: Solubility of the compound
Assay type: physicochemical
In the case of `COc1cc2sc(NC(=O)c3ccccc3Cn3cncn3)nc2cc1Cl`, the solubility is reported as “Insoluble”.
